The values that follow come from patent publication US20210213134A1, “THIOL-BASED MULTIVALENT DRUG DELIVERY COMPOSITIONS” (ORPRO THERAPEUTICS, INC., priority 2018, published 2021).

In data set [1] the target is T1, insulin disulfides (heterodimeric insulin) (Homo sapiens, UniProt P01308).
T1 construct: fully disulfide-bonded heterodimeric insulin
The data set can be described thus: single-turnover insulin protein disulfide reduction assay (RP-HPLC of insulin heterodimer peak). The following applies: relative GSH:TRX concentrations comparable to the airway, pH 8, FIG. 1. Type of data set: biochemical. As for the experimental part:
Left side of FIG. 1—polyacrylamide gel electrophoresis of native human thioredoxin-1 (TRX). Lane 1: Molecular weight standards; Lane 2: Oxidized TRX; Lane 3: Oxidized TRX following reaction with dithiothreitol (DTT); Lane 4: Oxidized TRX following reaction with reduced glutathione (GSH); Lane 5: Oxidized TRX following reaction with GSH followed by DTT. Right side of FIG. 1—TRX was oxidized by exposure to ambient air for one week then incubated with either DTT or GSH at pH 8 for 1 hour followed by purification over a size exclusion column to remove unreacted free DTT or GSH after which the TRX was collected and used in a single-turnover insulin protein-disulfide reduction assay. […] After 30 min, 60 min and 120 minutes aliquots were taken and diluted with 0.1% TFA and 17 uM (final) iodoacetic acid and analyzed over RP-HPLC. Absorbance was monitored at 214 nm and the peak area of the insulin heterodimer fraction was determined at each time point to quantify TRX protein disulfide-reducing activity.
C35STRX was oxidized and Lys residues were conjugated to an azido-PEG linker. The conjugated material was then reduced and tested for molecular weight using SDS-PAGE (FIG. 5D) and MALDI-TOF (FIG. 5E) and activity assessed using a single-turnover insulin protein disulfide reduction assay. […]

For data set [2] the following is noted: inhalation vs. i.v.; cited from earlier work.

T1 sequence (P01308 25-54 limits assumed): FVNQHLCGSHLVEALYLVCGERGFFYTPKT
T1 sequence (P01308 90-110 limits assumed): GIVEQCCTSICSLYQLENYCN

With `N[C@@H](CCC(=O)N[C@@H](CS)C(=O)NCC(=O)O)C(=O)O` [GSH, reduced glutathione, reference compound], the “restoration of insulin disulfide bond reduction activity to oxidized TRX” value in data set [1] is on record as “capable of restoring insulin disulfide bond reduction activity to oxidized TRX”. Regarding `CN[C@H](CC(C)C)C(=O)N[C@H]1C(=O)N[C@@H](CC(N)=O)C(=O)N[C@H]2C(=O)N[C@H]3C(=O)N[C@H](C(=O)N[C@H](C(=O)O)c4cc(O)cc(O)c4-c4cc3ccc4O)[C@H](O)c3ccc(c(Cl)c3)Oc3cc2cc(c3O[C@@H]2O[C@H](CO)[C@@H](O)[C@H](O)[C@H]2O[C@H]2C[C@](C)(N)[C@H](O)[C@H](C)O2)Oc2ccc(cc2Cl)[C@H]1O` [vancomycin], the “systemic exposure level by inhalation delivery relative to equivalent i.v.” value in data set [2] is given as about 50%.
